# Test results taken from patent US7358235B2, “Analogs of nitrobenzylthioinosine” (Gruenenthal GmbH, priority 2002, dated 2008).
# “Also recorded” adds a separate entry of the source. Where two headings read alike, the source gives them in different places. Marks after values point to notes of the source that are not given here.
# Legend:
# [1] = molecular target: T1, nucleoside transport protein (Homo sapiens, UniProt Q99808); test: [3H]NBTI radioligand binding assay on human erythrocyte membranes; conditions: for affinity / activity in words: comparison within the series, [3H]NBTI binding
# T1 construct: tissue Blood Bank, Leiden University Medical Center; host or cells: human erythrocyte membranes (ghosts) from whole human blood
# T1 sequence (Q99808 1-456): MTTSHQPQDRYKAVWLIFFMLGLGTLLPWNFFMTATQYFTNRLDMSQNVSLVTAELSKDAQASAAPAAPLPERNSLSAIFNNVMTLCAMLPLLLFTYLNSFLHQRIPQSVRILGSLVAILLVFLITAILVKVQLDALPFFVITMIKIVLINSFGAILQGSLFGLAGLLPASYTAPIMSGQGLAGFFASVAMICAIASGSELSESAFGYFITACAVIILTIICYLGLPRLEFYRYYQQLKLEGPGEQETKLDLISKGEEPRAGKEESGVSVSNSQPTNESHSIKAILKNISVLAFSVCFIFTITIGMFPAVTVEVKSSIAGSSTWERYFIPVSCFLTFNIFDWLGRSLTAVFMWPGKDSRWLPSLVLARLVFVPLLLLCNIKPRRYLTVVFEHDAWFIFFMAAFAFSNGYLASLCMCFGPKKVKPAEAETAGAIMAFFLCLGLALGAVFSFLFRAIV
# Procedure: All final products were tested in a radioligand binding assay.
# Erythrocytes and membrane preparation. Whole human blood (Blood Bank, Leiden University Medical Center) was stirred in lysis buffer (½ v/v, 10 mM MgCl2 in 10 mM Tris HCl, pH 8.0 at 25° C.) for 1 h. After homogenization it was centrifuged for 50 min at 19,000 rpm. The supernatant was removed and the pellet was dissolved in ice-cold water and centrifuged again for 50 min. This procedure was repeated two more times. After removal of the last supernatant 25 mL of buffer (50 mM Tris HCl, pH 7.4 at 25° C.) was added to the final pink pellet. This suspension was homogenized and the ghosts were collected. Aliquots were stored at −80° C. until further use.
# Saturation and displacement equilibrium NBTI binding to membranes prepared from human erythrocytes (ghosts) was determined at 25° C. based on a method previously described.
# [2] = inhibition of equilibrium binding of [3H]NBTI, Table 1, read-out: Ki(nM), affinity for the nucleoside transport protein on human erythrocyte membranes
# [3] = human erythrocyte membranes, [3H]NBTI 1.5 nM, 30 minutes at 25° C., Tris.HCl pH 7.4, read-out: Binding (Nucleoside Transporter (Ki))
Structure (SMILES),"Ki [1, 2] [nM]","Ki [1, 3] [nM]",affinity / activity in words [1],other results
OC[C@H]1O[C@@H](n2cnc3c(SCc4cc(Cl)cc5nonc45)ncnc32)[C@H](O)[C@@H]1O [Compound 16],25,,,
"OCC1OC(n2cnc3c(SCc4ccc5nsc(Br)c5c4)ncnc32)C(O)C1O (stereo not drawn) [Example 2, 2-[6-(3-Bromo-benzo[c]isothiazol-5-ylmethylsulfanyl)-purin-9-yl]-5-hydroxymethyl-tetrahydro-furan-3,4-diol]",42,,,
"OCC1OC(n2cnc3c(SCc4ccc5nonc5c4)ncnc32)C(O)C1O (stereo not drawn) [Example 3, 2-[6-(Benzo[1,2,5]oxadiazol-5-ylmethylsulfanyl)-purin-9-yl]-5-hydroxymethyl-tetrahydro-furan-3,4-diol]",1.5,,,
OCC1OC(n2cnc3c(SCc4cccc5nonc45)ncnc32)C(O)C1O (stereo not drawn) [Example 4],9.7,,,
"OCC1OC(n2cnc3c(SCc4cccc5conc45)ncnc32)C(O)C1O (stereo not drawn) [Example 7, 2-[6-(Benzo[c]isoxazol-7-ylmethylsulfanyl)-purin-9-yl]-5-hydroxy methyl-tetrahydro-furan-3,4-diol]",666,,,
"OCC1OC(n2cnc3c(SCc4ccc5nsc(Br)c5c4)ncnc32)C(O)C1O (stereo not drawn) [Example 10, 2-[6-(3-Bromo-benzo[c]isothiazol-5-ylmethylsulfanyl)-purin-9-yl]-5-hydroxymethyl-tetra hydro-furan-3,4-diol]",,42,,
"OCC1OC(n2cnc3c(SCc4ccc5nc[nH]c5c4)ncnc32)C(O)C1O (stereo not drawn) [Example 11, 2-[6-(3H-Benzoimidazol-5-ylmethylsulfanyl)-purin-9-yl]-5-hydroxymethyl-tetra hydro-furan-3,4-diol]",191,191,,
"OCC1OC(n2cnc3c(SCc4cccc5nc[nH]c45)ncnc32)C(O)C1O (stereo not drawn) [Example 12, 2-[6-(3H-Benzoimidazol-4-ylmethylsulfanyl)-purin-9-yl]-5-hydroxymethyl-tetrahydro-furan-3,4-diol]",,,,"Percentage of displacement at concentration of 10 μM ([1]; 10 μM, [3H]NBTI, human erythrocyte membranes): 42%*; Binding (Nucleoside Transporter), percentage at 10 μM ([1]; 10 μM, human erythrocyte membranes, [3H]NBTI): 42%"
"O=[N+]([O-])c1ccc(CSc2ncnc3c2ncn3C2CCCO2)cc1 (stereo not drawn) [Example 14, 6-(4-Nitro-benzylsulfanyl)-9-(tetrahydro-furan-2-yl)-9H-purine]",937,937,,
"O=[N+]([O-])c1ccc(CSc2ncnc3c2ncn3C2CCCCO2)cc1 (stereo not drawn) [Example 15, 6-(4-Nitro-benzylsulfanyl)-9-(tetrahydro-pyran-2-yl)-9H-purine]",1200,1200,,
"O=[N+]([O-])c1ccc(CSc2ncnc3c2ncn3CCCCOC2CCCCO2)cc1 (stereo not drawn) [Example 16, 6-(4-Nitro-benzylsulfanyl)-9-[4-(tetrahydro-pyran-2-yloxy)-butyl]-9H-purine]",488,488,did not improve the binding affinity,
"O=[N+]([O-])c1ccc(CSc2ncnc3c2ncn3CCCCO)cc1 [Example 17, 4-[6-(4-Nitro-benzylsulfanyl)-purin-9-yl]-butan-1-ol]",1140,1140,,
"O=[N+]([O-])c1ccc(CSc2ncnc3c2ncn3C2CCCC2)cc1 [Example 18, 9-Cyclopentyl-6-(4-nitro-benzylsulfanyl)-9H-purine]",736,736,,
"CCCCn1cnc2c(SCc3ccc([N+](=O)[O-])cc3)ncnc21 [Example 19, 9-Butyl-6-(4-nitro-benzylsulfanyl)-9H-purine]",238,238,,
"CCCCn1cnc2c(SCc3cccc4nonc34)ncnc21 [Example 20, 6-(Benzo[1,2,5]oxadiazol-4-ylmethylsulfanyl)-9-butyl-9H-purine]",5600,5600,,
"CCCCn1cnc2c(SCc3ccc4nscc4c3)ncnc21 [Example 21, 6-(Benzo[c]isothiazol-5-ylmethylsulfanyl)-9-butyl-9H-purine]",3100,3100,,
"CCCCn1cnc2c(SCc3ccc4nsc(Br)c4c3)ncnc21 [Example 22, 6-(3-Bromo-benzo[c]isothiazol-5-ylmethylsulfanyl)-9-butyl-9H-purine]",682,682,,
"OCC1OC(n2cnc3c(SCc4ccccc4)cc(Cl)nc32)C(O)C1O (stereo not drawn) [Example 23, 2-(7-Benzylsulfanyl-5-chloro-imidazo[4,5-b]pyridin-3-yl)-5-hydroxymethyl-tetrahydro-furan-3,4-diol]",670,670,decrease in affinity,
"O=[N+]([O-])c1ccc(CSc2cc(Cl)nc3c2ncn3C2OC(CO)C(O)C2O)cc1 (stereo not drawn) [Example 24, 2-[5-Chloro-7-(4-nitro-benzylsulfanyl)-imidazo[4,5-b]pyridin-3-yl]-5-hydroxymethyl-tetrahydro-furan-3,4-diol]",47,47,decrease in affinity,increase of affinity relative to 60 ([1]; introduction of a nitro group): approx. tenfold
"O=[N+]([O-])c1ccc(CSc2ncnc3c2ncn3CCCO)cc1 [Example 25, 3-[6-(4-Nitro-benzylsulfanyl)-purin-9-yl]-propan-1-ol]",,130,,
"O=[N+]([O-])c1ccc(CSc2ncnc3c2ncn3Cc2ccccc2)cc1 [Example 26, 9-Benzyl-6-(4-nitro-benzylsulfanyl)-9H-purine]",,135,,melting point: 139 °C
"OCC1OC(n2cnc3c(SCCc4ccccc4)ncnc32)C(O)C1O (stereo not drawn) [Example 27, 2-Hydroxymethyl-5-(6-phenethylsulfanyl-purin-9-yl)-tetrahydro-furan-3,4-diol]",,12,,
OCC1OC(n2cnc3c(SCc4ccc5nsc(Br)c5c4)ncnc32)C(O)C1O (stereo not drawn) [Example 31],,,,"affinity gain ([1]; bromination of 28 to yield 31): 2.6 fold; Ki ([1]; human erythrocyte membranes, [3H]NBTI, read-out: Ki): 42 nM"
OCC1OC(n2cnc3c(SCc4ccc5nc[nH]c5c4)ncnc32)C(O)C1O (stereo not drawn) [Example 37],,,negative effect on affinity,
OCC1OC(n2cnc3c(SCc4cccc5nc[nH]c45)ncnc32)C(O)C1O (stereo not drawn) [Example 38],,,negative effect on affinity; also recorded: reduced affinity when compared to their counterparts,
O=[N+]([O-])c1ccc(CSc2ncnc3c2ncn3C2CCCO2)cc1 (stereo not drawn) [Example 43],,,decrease in activity compared to compound 53,
O=[N+]([O-])c1ccc(CSc2ncnc3c2ncn3C2CCCCO2)cc1 (stereo not drawn) [Example 44],,,decrease in activity compared to compound 53,
O=[N+]([O-])c1ccc(CSc2ncnc3c2ncn3CCCCOC2CCCCO2)cc1 (stereo not drawn) [Example 46],,,higher affinity,
O=[N+]([O-])c1ccc(CSc2ncnc3c2ncn3C2CCCC2)cc1 [Example 48],,,decrease in activity compared to a simple n-butyl substituent,
